Results on 27 compounds are retold here after US7622598B2, “Phenol derivatives and antitrypanosoma preventive/therapeutic agent comprising the same as active ingredient” (aRigen Pharmaceuticals, Inc., priority 2003, dated 2009).

The target of data set [1] is cyanide resistant quinol enzyme of Trypanosoma (Trypanosoma brucei brucei, UniProt Q26710). In words: Respiration inhibition on the cyanide resistant quinol enzyme of Trypanosoma (recombinant enzyme). The format is biochemical. An excerpt:
Antitrypanosoma Action (IC50)
The respiration inhibition effect of the novel phenol derivatives on the cyanide resistant quinol enzyme of Trypanosoma was examined with the use of a recombinant enzyme.

A further data set has as its system Trypanosma brucei brucei. In words: Antitrypanosoma action in 24 h culture, minimum effective concentration, with or without glycerin. The format is cell-based, Trypanosoma brucei brucei. The conditions noted are these: for Minimum Effective Concentration, Presence of Glycerin: 5 mM of glycerin; for minimal effective concentration: Trypanosoma brucei, read-out: Minimum Effective Concentration, Absence of Glycerin. As for the experimental part: With the use of a 96-well culture plate, each agent was adjusted to 10 mM with DMSO, and 5×10^5/ml of Trypanosma brucei brucei was added and cultured at 37° C. for 24 hours, and the minimum effective concentration was calculated.
The above described culture was conducted with the addition of 5 mM of glycerin under the same conditions as described above and observed.

Data set [2] concerns glycerol-3-phosphate-dependent respiration in the mitochondrial specimen of Trypanosoma brucei brucei. The conditions noted are these: earlier filing JP H09-165332; cited from earlier work.
Data set [3] shares this test system. In words: Inhibition of glycerol-3-phosphate-dependent respiration in mitochondrial specimen. The format is biochemical. The settings on record: mitochondrial specimen from T. brucei brucei multiplied in rat bloodstream. The source says:
The inhibition effect of the novel halogen-containing phenol derivatives having an alkyl side chain on the glycerol-3-phosphate-dependent respiration in the mitochondrial specimen prepared by mechanically crushing the bodies of Trypanosoma brucei brucei multiplied in the rat bloodstream with glass beads and subjecting the crushed bodies to centrifugal fractionation was examined.

Where [4] appears, read: 5×10^5/ml, 37° C., 24 hours, no glycerin.

pIC50: −log10 of the molar value. Where two headings read alike, the source gives them in different places.

Sequence of cyanide resistant quinol enzyme of Trypanosoma (Q26710 whole entry): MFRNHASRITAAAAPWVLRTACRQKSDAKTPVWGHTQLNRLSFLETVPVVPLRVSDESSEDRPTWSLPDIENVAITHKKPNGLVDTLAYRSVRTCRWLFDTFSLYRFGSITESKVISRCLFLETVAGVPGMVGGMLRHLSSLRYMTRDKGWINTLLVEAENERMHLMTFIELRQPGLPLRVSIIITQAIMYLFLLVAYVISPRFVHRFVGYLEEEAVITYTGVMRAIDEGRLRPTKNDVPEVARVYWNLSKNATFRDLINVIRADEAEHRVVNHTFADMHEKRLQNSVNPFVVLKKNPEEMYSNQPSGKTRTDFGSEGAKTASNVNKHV

Broadly, the melting point is the temperature of the solid-liquid transition. With `CCCCCCCCCCCC(O)c1c(O)c(Cl)cc(C(=O)OC)c1O` (centres unmarked), the melting point was 96 to 97 °C.

For orientation: pIC50 means −log10 of the IC50, conventionally taken in molar units. Consider `Cc1c(Cl)c(O)c(CCC(C)CCCC(C)[C@@H]2CC(=O)C(C)(C)O2)c(O)c1C=O` (mixture of isomers) [compound 212, 3-Chloro-4,6-dihydroxy-2-methyl-5-[3-methyl-7-(tetrahydro-5,5-dimethyl-4-oxo-2-furanyl)octyl]-benzaldehyde], for which the pIC50 in data set [1] was 9.52.

`Cc1c(Cl)c(O)c(CCC(C)CCCC(C)C)c(O)c1C=O` (racemic) [dl-218, 3-Chloro-5-(3,7-dimethyloctyl)-4,6-dihydroxy-2-methylbenzaldehyde] returned a melting point of 66 to 67 °C. In addition, the pIC50 in data set [1] is 9.40.

For `Cc1c(Cl)c(O)c(/C=C/C(C)CCCC(C)C)c(O)c1C=O` (racemic) [dl-223, 3-Chloro-5-(3,7-dimethyl-1-octenyl)-4,6-dihydroxy-2-methylbenzaldehyde], in data set [1], the pIC50 was 8.96.

For the compound `CCCCCCCCC(O)c1c(O)cc(C)c(C=O)c1O` (centres unmarked) [195-9, 2,4-Dihydroxy-3-(1-hydroxynonyl)-6-methylbenzaldehyde], the “Minimum Effective Concentration, Presence of Glycerin” value (“Minimum Effective Concentration” for short) in the data set on Trypanosma brucei brucei (5×10^5/ml, 37° C., 24 hours) was 25 µM. The minimal effective concentration in the data set with Trypanosma brucei brucei (setting [4]) is 25 µM. The pIC50 in data set [1] was 7.52.

In the case of `CCCCCCCCCC(O)c1c(O)cc(C)c(C=O)c1O` (centres unmarked) [195-10, 2,4-Dihydroxy-3-(1-hydroxydecyl)-6-methylbenzaldehyde], in the data set on Trypanosma brucei brucei (5×10^5/ml, 37° C., 24 hours), the “Minimum Effective Concentration” value worked out at 25 µM. In addition, in the data set with Trypanosma brucei brucei (setting [4]), the minimal effective concentration is 25 µM. Moreover, in data set [1], the pIC50 is 7.46.

On to `CCCCCCCCCCCC(O)c1c(O)cc(C)c(C=O)c1O` (centres unmarked) [195-12, 2,4-Dihydroxy-3-(1-hydroxydodecyl)-6-methylbenzaldehyde], for which, in the data set on Trypanosma brucei brucei (5×10^5/ml, 37° C., 24 hours), the “Minimum Effective Concentration” value is 25 µM. For the same compound, the minimal effective concentration in the data set on Trypanosma brucei brucei (setting [4]) was 25 µM. Also, the pIC50 in data set [1] is 7.40.

Regarding `CCCCCCCCC(O)c1c(O)c(Cl)c(C)c(C=O)c1O` (centres unmarked) [196-9, 5-Chloro-2,4-dihydroxy-3-(1-hydroxynonyl)-6-methylbenzaldehyde], the “Minimum Effective Concentration” value in the data set with Trypanosma brucei brucei (5×10^5/ml, 37° C., 24 hours) came out at 0.8 µM. Also, the minimal effective concentration with Trypanosma brucei brucei (setting [4]) is 50 µM. In addition, the pIC50 in data set [1] is 9.30.

`CCCCCCCCCC(O)c1c(O)c(Cl)c(C)c(C=O)c1O` (centres unmarked) [196-10, 5-Chloro-2,4-dihydroxy-3-(1-hydroxydecyl)-6-methylbenzaldehyde]: in the data set with Trypanosma brucei brucei (5×10^5/ml, 37° C., 24 hours), the “Minimum Effective Concentration” value turned out to be 0.8 µM. In addition, the minimal effective concentration in the data set with Trypanosma brucei brucei (setting [4]) turned out to be 100 µM. For the same compound, the pIC50 in data set [1] is 9.22.

For the compound `CCCCCCCCCCCC(O)c1c(O)c(Cl)c(C)c(C=O)c1O` (centres unmarked) [196-12, 5-Chloro-2,4-dihydroxy-3-(1-hydroxydodecyl)-6-methylbenzaldehyde], the “Minimum Effective Concentration” value in the data set on Trypanosma brucei brucei (5×10^5/ml, 37° C., 24 hours) was 1.5 µM. The minimal effective concentration with Trypanosma brucei brucei (setting [4]) was found to be 100 µM. Further, the pIC50 in data set [1] is 9.19.

`CCCCC/C=C/c1c(O)c(Cl)c(C)c(C=O)c1O` [200-7, 5-Chloro-3-(1-heptenyl)-2,4-dihydroxy-6-methylbenzaldehyde] displayed a melting point of 96 to 97 °C.

The compound `CCCCCCC/C=C/c1c(O)c(Cl)c(C)c(C=O)c1O` [200-9, 5-chloro-2,4-dihydroxy-6-methyl-3-(1-nonenyl)benzaldehyde] registered a melting point of 79.5 to 80.5 °C. In the data set with Trypanosma brucei brucei (5×10^5/ml, 37° C., 24 hours), the “Minimum Effective Concentration” value worked out at 0.8 µM. Besides, the minimal effective concentration with Trypanosma brucei brucei (setting [4]) was 100 µM. Also, the pIC50 in data set [1] was 9.40.

With `CCCCCCCC/C=C/c1c(O)c(Cl)c(C)c(C=O)c1O` [200-10, 5-Chloro-3-(1-decenyl)-2,4-dihydroxy-6-methylbenzaldehyde], the melting point was in the range of 83 to 84 °C. Besides, the “Minimum Effective Concentration” value in the data set on Trypanosma brucei brucei (5×10^5/ml, 37° C., 24 hours) was 0.8 µM. Moreover, the minimal effective concentration in the data set on Trypanosma brucei brucei (setting [4]) is 100 µM. Also, the pIC50 in data set [1] is 9.35.

In the case of `CCCCCCCCCC/C=C/c1c(O)c(Cl)c(C)c(C=O)c1O` [200-12, 5-Chloro-3-(1-dodecenyl)-2,4-dihydroxy-6-methylbenzaldehyde], in the data set on Trypanosma brucei brucei (5×10^5/ml, 37° C., 24 hours), the “Minimum Effective Concentration” value stood at 1.5 µM. The minimal effective concentration in the data set on Trypanosma brucei brucei (setting [4]) amounted to 100 µM. Also, the pIC50 in data set [1] is 9.30.

For `CCCCCCCCCCCC(O)c1c(O)ccc(C=O)c1O` (centres unmarked) [201-12, 2,4-Dihydroxy-3-(1-hydroxydodecyl)benzaldehyde], the pIC50 in data set [1] is 6.52.

In the case of `CCCCCCCCCCCC(O)c1c(O)c(Cl)cc(C=O)c1O` (centres unmarked) [202-12, 5-Chloro-2,4-dihydroxy-3-(1-hydroxydodecyl)benzaldehyde], the melting point lay within 78 to 79 °C. For the same compound, in data set [1], the pIC50 is 8.82.

Compound `CCCCCCCCCC/C=C/c1c(O)c(Cl)cc(C=O)c1O` [203-12, 5-Chloro-3-(1-dodecenyl)-2,4-dihydroxybenzaldehyde] came in with a melting point of 84 to 85 °C. Besides, in data set [1], the negative logarithm of the IC50 (pIC50) was 9.30.

`CCCCCCCCCc1c(O)c(Cl)c(C)c(C=O)c1O` [215-9, 3-Chloro-4,6-dihydroxy-2-methyl-5-nonylbenzaldehyde] yielded a melting point of 89 to 90 °C. Also, in data set [1], the pIC50 was 9.68.

As for `C/C(=C\Cc1c(O)c(Cl)c(C)c(C=O)c1O)CC/C=C(\C)[C@@H]1CC(=O)C(C)(C)O1` [AF, ascofuranone, reference compound], the “inhibition of the glycerol-3-phosphate oxidation system of trypanosome” value in data set [2] is reported as “very low concentration of the order of nM”. For the same compound, the “Minimum Effective Concentration” value with Trypanosma brucei brucei (5×10^5/ml, 37° C., 24 hours) was 0.2 µM. In addition, the minimal effective concentration in the data set with Trypanosma brucei brucei (24 h) is 200 µM.

As to `CCCC[C@H]1C(=O)O[C@H](C)[C@H](NC(=O)c2cccc(NC=O)c2O)C(=O)O[C@@H](C)[C@@H]1OC(=O)CC(C)C` [antimycin A3], the “absolute amounts of 50% inhibition” value in data set [3] is reported as 48,600 pmol/mg protein.

`CCCCCCCC/C=C/c1c(O)ccc(C=O)c1O` [compound 197, 3-(1-Decenyl)-2,4-dihydroxybenzaldehyde]: in the data set on Trypanosma brucei brucei (5×10^5/ml, 37° C., 24 hours), the “Minimum Effective Concentration” value was determined as 50 µM. For the same compound, the minimal effective concentration in the data set on Trypanosma brucei brucei (setting [4]) was 50 µM. The pIC50 in data set [1] was 6.92.

Turning to `CCCCCCCCCC/C=C/c1c(O)cc(C)c(C=O)c1O` [compound 198, 3-(1-Dodecenyl)-2,4-dihydroxy-6-methylbenzaldehyde], the melting point was 103 to 105 °C. Moreover, the “Minimum Effective Concentration” value with Trypanosma brucei brucei (5×10^5/ml, 37° C., 24 hours) stood at 50 µM. Moreover, the minimal effective concentration in the data set with Trypanosma brucei brucei (setting [4]) amounted to 50 µM. Besides, in data set [1], the negative logarithm of the IC50 (pIC50) was 7.80.

Consider `COc1c(Cl)c(C)c(C=O)c(O)c1C/C=C(\C)CC/C=C(\C)[C@@H]1CC(=O)C(C)(C)O1` [compound 211, 3-Chloro-6-hydroxy-4-methoxy-2-methyl-5-[(E,E)-3-methyl-7-(tetrahydro-5,5-dimethyl-4-oxo-2-furanyl)-2,6-octadienyl]benzaldehyde], for which the pIC50 in data set [1] was 8.40.

The compound `C/C(=C\Cc1c(O)c(Cl)c(C)c(/C=N/O)c1O)CC/C=C(\C)[C@@H]1CC(=O)C(C)(C)O1` [compound 213, 5-[(E,E)-7-(3-Chloro-2,6-dihydroxy-5-hydroxyiminomethyl-4-methylphenyl)-1,5-dimethyl-1,5-heptadienyl]-4,5-dihydro-2,2-dimethyl-3(2H)-furanone] had a melting point of 102 to 103 °C. Further, in data set [1], the pIC50 was 7.55.

With `CC(C)=CCCC(C)CC(O)c1c(O)c(Cl)c(C)c(C=O)c1O` (centres unmarked) [compound 220, 3-chloro-4,6-dihydroxy-5-(1-hydroxy-3,7-dimethyl-6-octenyl)-2-methylbenzaldehyde], in data set [1], the pIC50 was 7.70.

For `CO/C(=C/C(N)=O)[C@H](C)[C@H](/C=C/c1csc(-c2csc([C@@H](C)/C=C/C=C/C(C)C)n2)n1)OC` [myxothiazol], the “absolute amounts of 50% inhibition” value in data set [3] was 21,500 pmol/mg protein.

In the case of `C/C=C(C)/C=C/C=C/[C@H](OC)[C@@H](C)[C@@H](OC)[C@@H](C)CCc1oc2c(O)c(OC)cc(OC)c2c(=O)c1C` [stigmatellin], the “absolute amounts of 50% inhibition” value in data set [3] was 18,600 pmol/mg protein.
